According to patent US11286263B2, “Macrocyclic fluorine substituted indole derivatives” (The Broad Institute, Inc., priority 2017, dated 2022):

Experiments:
MCL-1 = MCL-1 (Homo sapiens (Human), UniProt Q07820, K194A/K197A/R201A); assay: Protein-protein interaction assay MCL-1/Noxa BH3 peptide (MCL-1 assay), TR-FRET; type: binding; settings: MCL-1/Noxa BH3 peptide TR-FRET; median
How it was run: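 TR-FRET competition between MBP-MCL-1 (173-321, 1 nM) and biotin-Noxa BH3 peptide (1 nM) with anti-MBP-Eu/streptavidin-XL665; 11 compound levels 0.1 nM–20 μM, 10 min preincubation. Incubated 1 h at 22 °C then overnight at 4 °C, pH 7 Tris buffer. 665/620 ratio normalized to DMSO and no-MCL-1; 4-parameter IC50.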

SUDHL10 = assay: Induction of cytotoxicity, SUDHL10 (Assay 6); settings: Homo sapiens, SU-DHL10, 5 h, read-out: IC50 Cytotox SUDHL10 [M] (median), SUDHL10 cells, 5 h, CellTiter-Glo

MCL-1, sequence (Q07820 whole entry K194A/K197A/R201A, looked up): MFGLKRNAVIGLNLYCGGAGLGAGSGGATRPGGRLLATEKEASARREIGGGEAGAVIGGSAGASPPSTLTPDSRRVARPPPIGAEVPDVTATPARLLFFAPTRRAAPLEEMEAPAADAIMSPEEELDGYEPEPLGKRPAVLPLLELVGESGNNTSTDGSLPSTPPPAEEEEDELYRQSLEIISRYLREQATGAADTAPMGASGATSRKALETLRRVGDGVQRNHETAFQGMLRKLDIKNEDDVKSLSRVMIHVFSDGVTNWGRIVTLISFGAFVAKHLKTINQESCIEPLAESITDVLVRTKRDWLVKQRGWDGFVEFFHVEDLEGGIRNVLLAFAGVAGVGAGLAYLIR

Molecule	IC50 (MCL-1) [nM]	IC50 (SUDHL10) [M]
Cc1c2c(nn1C)COC/C=C\Cn1c(C(=O)O)c(CCCOc3cccc4ccccc34)c3ccc(F)c-2c31 (racemic) [Example 1, (rac)-(11Z)-4-fluoro-2,3-dimethyl-7-[3-(naphthalen-1-yloxy)propyl]-2,10,13,15-tetrahydro-pyrazolo[4′,3′:9,10][1,6]oxazacycloundecino[8,7,6-hi]indole-8-carboxylic acid]	1.8	3.8e-06
Cc1c2c(nn1C)COCCCCn1c(C(=O)O)c(CCCOc3cccc4ccccc34)c3ccc(F)c-2c31 (racemic) [Example 2, (rac)-4-fluoro-2,3-dimethyl-7-[3-(naphthalen-1-yloxy)propyl]-2,10,11,12,13,15-hexahydro-pyrazolo[4′,3′:9,10][1,6]oxazacycloundecino[8,7,6-hi]indole-8-carboxylic acid]	1.2	1.6e-06
CCc1c2c(nn1C)COC/C=C\Cn1c(C(=O)O)c(CCCOc3cccc4ccccc34)c3ccc(F)c-2c31 (racemic) [Example 5, (rac)-(11Z)-3-ethyl-4-fluoro-2-methyl-7-[3-(naphthalen-1-yloxy)propyl]-2,10,13,15-tetrahydro-pyrazolo[4′,3′:9,10][1,6]oxazacycloundecino[8,7,6-hi]indole-8-carboxylic acid]	2.3	3.2e-06
Cc1nn(C)c2c1-c1c(F)ccc3c(CCCOc4cccc5ccccc45)c(C(=O)O)n(c13)C/C=C\COC2 (racemic) [Example 9, (rac)-(Z)-13-fluoro-10,12-dimethyl-1-(3-(naphthalen-1-yloxy)propyl)-4,7,9,10-tetrahydro-pyrazolo[4′,3′:9,10][1]oxa[6]azacycloundecino[8,7,6-hi]indole-2-carboxylic acid]	2.4	1.5e-05
Cc1nn(C)c2c1-c1c(F)ccc3c(CCCOc4cccc5ccccc45)c(C(=O)O)n(c13)CCCCOC2 (racemic) [Example 10, (rac)-13-fluoro-10,12-dimethyl-1-(3-(naphthalen-1-yloxy)propyl)-4,5,6,7,9,10-hexahydro-pyrazolo[4′,3′:9,10][1]oxa[6]azacycloundecino[8,7,6-hi]indole-2-carboxylic acid]	1.1	3.6e-06
CCc1nn(C)c2c1-c1c(F)ccc3c(CCCOc4cccc5ccccc45)c(C(=O)O)n(c13)C/C=C\COC2 (racemic) [Example 11, (rac)-(Z)-12-ethyl-13-fluoro-10-methyl-1-(3-(naphthalen-1-yloxy)propyl)-4,7,9,10-tetrahydro-pyrazolo[4′,3′:9,10][1]oxa[6]azacycloundecino[8,7,6-hi]indole-2-carboxylic acid]	2.2	7.2e-06
Cc1c2c(nn1C)COCCCCn1c(C(=O)O)c(CCCOc3ccc(F)c4ccccc34)c3ccc(F)c-2c31 (racemic) [Example 15, (rac)-13-fluoro-1-(3-((4-fluoronaphthalen-1-yl)oxy)propyl)-11,12-dimethyl-4,5,6,7,9,11-hexahydropyrazolo[4′,3′:9,10][1]oxa[6]azacycloundecino[8,7,6-hi]indole-2-carboxylic acid]	1.3	3e-06
Cc1c2c(nn1C)COCCCCn1c(C(=O)O)c(CCCOc3cccc4c3CCCC4)c3ccc(F)c-2c31 (racemic) [Example 18, (rac)-13-fluoro-11,12-dimethyl-1-(3-((5,6,7,8-tetrahydronaphthalen-1-yl)oxy)propyl)-4,5,6,7,9,11-hexahydropyrazolo[4′,3′:9,10][1]oxa[6]azacycloundecino[8,7,6-hi]indole-2-carboxylic acid]	1.6	1.7e-06
Cc1c2c(nn1C)COCCCCn1c(C(=O)O)c(CCCOc3cccc4c3CCC4)c3ccc(F)c-2c31 (racemic) [Example 19, (rac)-1-(3-((2,3-dihydro-1H-inden-4-yl)oxy)propyl)-13-fluoro-11,12-dimethyl-4,5,6,7,9,11-hexahydropyrazolo[4′,3′:9,10][1]oxa[6]azacycloundecino[8,7,6-hi]indole-2-carboxylic acid]	1.5	2.1e-06
Cc1cc(OCCCc2c(C(=O)O)n3c4c(c(F)ccc24)-c2c(nn(C)c2C)COCCCC3)cc(C)c1Cl (racemic) [Example 20, (rac)-1-(3-(4-chloro-3,5-dimethylphenoxy)propyl)-13-fluoro-11,12-dimethyl-4,5,6,7,9,11-hexahydropyrazolo[4′,3′:9,10][1]oxa[6]azacycloundecino[8,7,6-hi]indole-2-carboxylic acid]	1.5	2.6e-06
CCc1c2c(nn1C)COCCCCn1c(C(=O)O)c(CCCOc3cccc4c3CCCC4)c3ccc(F)c-2c31 (racemic) [Example 29, (rac)-12-ethyl-13-fluoro-11-methyl-1-(3-((5,6,7,8-tetrahydronaphthalen-1-yl)oxy)propyl)-4,5,6,7,9,11-hexahydropyrazolo[4′,3′:9,10][1]oxa[6]azacycloundecino[8,7,6-hi]indole-2-carboxylic acid]	1.5	1.8e-06
CCc1c2c(nn1C)COCCCCn1c(C(=O)O)c(CCCOc3cc(C)c(Cl)c(C)c3)c3ccc(F)c-2c31 (racemic) [Example 31, (rac)-1-(3-(4-chloro-3,5-dimethylphenoxy)propyl)-12-ethyl-13-fluoro-11-methyl-4,5,6,7,9,11-hexahydropyrazolo[4′,3′:9,10][1]oxa[6]azacycloundecino[8,7,6-hi]indole-2-carboxylic acid]	1.8	3.6e-06
Cc1nn(C)c2c1-c1c(F)ccc3c(CCCOc4cccc5cc(F)ccc45)c(C(=O)O)n(c13)CCCCOC2 (racemic) [Example 32, (rac)-13-fluoro-1-(3-((6-fluoronaphthalen-1-yl)oxy)propyl)-10,12-dimethyl-4,5,6,7,9,10-hexahydropyrazolo[4′,3′:9,10][1]oxa[6]azacycloundecino[8,7,6-hi]indole-2-carboxylic acid]	1.1	2e-06
Cc1nn(C)c2c1-c1c(F)ccc3c(CCCOc4ccc(F)c5ccccc45)c(C(=O)O)n(c13)CCCCOC2 (racemic) [Example 33, (rac)-13-fluoro-1-(3-((4-fluoronaphthalen-1-yl)oxy)propyl)-10,12-dimethyl-4,5,6,7,9,10-hexahydropyrazolo[4′,3′:9,10][1]oxa[6]azacycloundecino[8,7,6-hi]indole-2-carboxylic acid]	1.7	8.4e-06
Cc1nn(C)c2c1-c1c(F)ccc3c(CCCOc4cccc5c4CCCC5)c(C(=O)O)n(c13)CCCCOC2 (racemic) [Example 34, (rac)-13-fluoro-10,12-dimethyl-1-(3-((5,6,7,8-tetrahydronaphthalen-1-yl)oxy)propyl)-4,5,6,7,9,10-hexahydropyrazolo[4′,3′:9,10][1]oxa[6]azacycloundecino[8,7,6-hi]indole-2-carboxylic acid]	1.3	4.2e-06
Cc1nn(C)c2c1-c1c(F)ccc3c(CCCOc4cccc5c4CCC5)c(C(=O)O)n(c13)CCCCOC2 (racemic) [Example 35, (rac)-1-(3-((2,3-dihydro-1H-inden-4-yl)oxy)propyl)-13-fluoro-10,12-dimethyl-4,5,6,7,9,10-hexahydropyrazolo[4′,3′:9,10][1]oxa[6]azacycloundecino[8,7,6-hi]indole-2-carboxylic acid]	1.3	1.5e-05
Cc1cc(OCCCc2c(C(=O)O)n3c4c(c(F)ccc24)-c2c(C)nn(C)c2COCCCC3)cc(C)c1Cl (racemic) [Example 36, (rac)-1-(3-(4-chloro-3,5-dimethylphenoxy)propyl)-13-fluoro-10,12-dimethyl-4,5,6,7,9,10-hexahydropyrazolo[4′,3′:9,10][1]oxa[6]azacycloundecino[8,7,6-hi]indole-2-carboxylic acid]	2.1	9e-06
CCc1nn(C)c2c1-c1c(F)ccc3c(CCCOc4cccc5ccccc45)c(C(=O)O)n(c13)CCCCOC2 (racemic) [Example 37, (rac)-12-ethyl-13-fluoro-10-methyl-1-(3-(naphthalen-1-yloxy)propyl)-4,5,6,7,9,10-hexahydro-pyrazolo[4′,3′:9,10][1]oxa[6]azacycloundecino[8,7,6-hi]indole-2-carboxylic acid]	1.2	4.8e-06
CCc1nn(C)c2c1-c1c(F)ccc3c(CCCOc4cccc5c4CCCC5)c(C(=O)O)n(c13)CCCCOC2 (racemic) [Example 44, (rac)-12-ethyl-13-fluoro-10-methyl-1-(3-((5,6,7,8-tetrahydronaphthalen-1-yl)oxy)propyl)-4,5,6,7,9,10-hexahydropyrazolo[4′,3′:9,10][1]oxa[6]azacycloundecino[8,7,6-hi]indole-2-carboxylic acid]	1.7	4.2e-06
CCc1nn(C)c2c1-c1c(F)ccc3c(CCCOc4cccc5c4CCC5)c(C(=O)O)n(c13)CCCCOC2 (racemic) [Example 45, (rac)-1-(3-((2,3-dihydro-1H-inden-4-yl)oxy)propyl)-12-ethyl-13-fluoro-10-methyl-4,5,6,7,9,10-hexahydropyrazolo[4′,3′:9,10][1]oxa[6]azacycloundecino[8,7,6-hi]indole-2-carboxylic acid]	1.4	3.4e-06
(rac)-1-(3-((2,3-dihydro-1H-inden-4-yl)oxy)propyl)-12-ethyl-13-fluoro-11-methyl-4,5,6,7,9,11-hexahydropyrazolo[4′,3′:9,10][1]oxa[6]azacycloundecino[8,7,6-hi]indole-2-carboxylic acid [Example 30]	1.3	
